# Results: ChEMBL document CHEMBL1681651, “A broad spectrum anticancer nucleoside with selective toxicity against human colon cells in vitro” (2011)
# Tests used:
# Type in all cases: functional
# [1] = tested on: NCI-H226; assay: Growth inhibition of human NCI-H226 cells assessed as cell growth at 10 uM after 48 hrs by SRB assay; settings: NCI-H226, 48 h, read-out: Activity
# [2] = tested on: NCI-H23; assay: Growth inhibition of human NCI-H23 cells assessed as cell growth at 10 uM after 48 hrs by SRB assay; settings: NCI-H23, 48 h, read-out: Activity
# [3] = tested on: NCI-H322M; assay: Growth inhibition of human NCI-H322M cells after 48 hrs by […] growth inhibition assay
# [4] = tested on: HCC 2998; assay: Growth inhibition of human HCC2998 cells after 48 hrs by […] growth inhibition assay; settings: HCC 2998, 48 h
# [5] = tested on: HCT-15; assay: Growth inhibition of human HCT15 cells after 48 hrs by […] growth inhibition assay; settings: HCT-15, 48 h
# [6] = tested on: UACC-62; assay: Growth inhibition of human UACC62 cells after 48 hrs by […] growth inhibition assay; settings: UACC-62, 48 h
# [7] = tested on: SF-268; assay: Growth inhibition of human SF268 cells after 48 hrs by […] growth inhibition assay; settings: SF-268, 48 h
# [8] = tested on: RXF 393; assay: Growth inhibition of human RXF393 cells after 48 hrs by […] growth inhibition assay; settings: RXF 393, 48 h
# [9] = tested on: OVCAR-3; assay: Growth inhibition of human OVCAR3 cells assessed as cell growth at 0.1 uM after 48 hrs by SRB assay; settings: OVCAR-3, 48 h, read-out: Activity
# [10] = tested on: SK-OV-3; assay: Growth inhibition of human SKOV3 cells assessed as cell growth at 0.1 uM after 48 hrs by SRB assay; settings: SK-OV-3, 48 h, read-out: Activity
# [11] = tested on: A498; assay: Growth inhibition of human A498 cells assessed as cell growth at 0.1 uM after 48 hrs by SRB assay; settings: A498, 48 h, read-out: Activity
# [12] = tested on: MDA-MB-435; assay: Growth inhibition of human MDA-MB-435 cells assessed as cell growth at 0.1 uM after 48 hrs by SRB assay; settings: MDA-MB-435, 48 h, read-out: Activity
# [13] = tested on: SK-MEL-2; assay: Growth inhibition of human SK-MEL-2 cells assessed as cell growth at 10 uM after 48 hrs by SRB assay; settings: SK-MEL-2, 48 h, read-out: Activity
# [14] = tested on: OVCAR-4; assay: Growth inhibition of human OVCAR4 cells assessed as cell growth at 10 uM after 48 hrs by SRB assay; settings: OVCAR-4, 48 h, read-out: Activity
# [15] = tested on: SK-OV-3; assay: Growth inhibition of human SKOV3 cells assessed as cell growth at 10 uM after 48 hrs by SRB assay; settings: SK-OV-3, 48 h, read-out: Activity
# [16] = tested on: UO-31; assay: Growth inhibition of human UO31 cells assessed as cell growth at 10 uM after 48 hrs by SRB assay; settings: UO-31, 48 h, read-out: Activity
# [17] = tested on: MDA-MB-435; assay: Growth inhibition of human MDA-MB-435 cells assessed as cell growth at 10 uM after 48 hrs by SRB assay; settings: MDA-MB-435, 48 h, read-out: Activity
# [18] = tested on: HCT-15; assay: Growth inhibition of human HCT15 cells assessed as cell growth at 100 uM after 48 hrs by SRB assay; settings: HCT-15, 48 h, read-out: Activity
# [19] = tested on: SF-268; assay: Growth inhibition of human SF268 cells assessed as cell growth at 100 uM after 48 hrs by SRB assay; settings: SF-268, 48 h, read-out: Activity
# [20] = tested on: SF-539; assay: Growth inhibition of human SF539 cells assessed as cell growth at 100 uM after 48 hrs by SRB assay; settings: SF-539, 48 h, read-out: Activity
# [21] = tested on: UACC-62; assay: Growth inhibition of human UACC62 cells assessed as cell growth at 100 uM after 48 hrs by SRB assay; settings: UACC-62, 48 h, read-out: Activity
# [22] = tested on: OVCAR-8; assay: Growth inhibition of human OVCAR8 cells assessed as cell growth at 100 uM after 48 hrs by SRB assay; settings: OVCAR-8, 48 h, read-out: Activity
# [23] = tested on: UO-31; assay: Growth inhibition of human UO31 cells assessed as cell growth at 100 uM after 48 hrs by SRB assay; settings: UO-31, 48 h, read-out: Activity
# [24] = tested on: DU-145; assay: Growth inhibition of human DU145 cells assessed as cell growth at 100 uM after 48 hrs by SRB assay; settings: DU-145, 48 h, read-out: Activity
# [25] = tested on: NCI/ADR-RES; assay: Growth inhibition of human NCI/ADR-RES cells assessed as cell growth at 100 uM after 48 hrs by SRB assay; settings: read-out: Activity
# [26] = tested on: MDA-MB-435; assay: Growth inhibition of human MDA-MB-435 cells assessed as cell growth at 100 uM after 48 hrs by SRB assay; settings: MDA-MB-435, 48 h, read-out: Activity
# [27] = tested on: BT-549; assay: Growth inhibition of human BT549 cells assessed as cell growth at 100 uM after 48 hrs by SRB assay; settings: BT-549, 48 h, read-out: Activity
# [28] = tested on: CCRF-CEM; assay: Growth inhibition of human CCRF-CEM cells assessed as cell growth at 1 mM after 48 hrs by SRB assay; settings: read-out: Activity
# [29] = tested on: OVCAR-5; assay: Growth inhibition of human OVCAR5 cells assessed as cell growth at 1 mM after 48 hrs by SRB assay; settings: OVCAR-5, 48 h, read-out: Activity
# [30] = tested on: ACHN; assay: Growth inhibition of human ACHN cells assessed as cell growth at 1 mM after 48 hrs by SRB assay; settings: read-out: Activity
# [31] = tested on: NCI-H322M; assay: Growth inhibition of human NCI-H322M cells assessed as cell growth at 1 uM after 48 hrs by SRB assay; settings: read-out: Activity
# [32] = tested on: UACC-257; assay: Growth inhibition of human UACC257 cells assessed as cell growth at 1 uM after 48 hrs by SRB assay; settings: UACC-257, 48 h, read-out: Activity
# [33] = tested on: IGROV-1; assay: Growth inhibition of human IGROV1 cells assessed as cell growth at 1 uM after 48 hrs by SRB assay; settings: IGROV-1, 48 h, read-out: Activity
# [34] = read-out: LC50 (the source's name)
# [35] = read-out: pLC50 (the source's name) (converted)
structure (smiles),measurement,setting,value
CNC(=O)NC[C@H]1O[C@@H](n2cnc3c(NC(=O)Nc4ccccc4)ncnc32)[C@H](O[Si](C)(C)C(C)(C)C)[C@@H]1CC(=O)N(C)OC,growth at 10 µM,[1],99%
same,growth at 10 µM,[2],99%
same,GI50,[3]; read-out: GI50,> 100 µM
same,CC50,[3]; [34],> 100 µM
same,TGI,[3]; read-out: TGI,> 100 µM
same,GI50,[3]; read-out: pGI50 (converted),> 100 µM
same,CC50,[3]; [35],> 100 µM
same,TGI,[3]; read-out: pTGI,> 100 µM
same,GI50,[4]; read-out: GI50,30.6 µM
same,CC50,[4]; [34],> 100 µM
same,TGI,[4]; read-out: TGI,> 100 µM
same,GI50,[4]; read-out: pGI50 (converted),30.9 µM
same,CC50,[4]; [35],> 100 µM
same,TGI,[4]; read-out: pTGI (converted),> 100 µM
same,GI50,[5]; read-out: GI50,6.47 µM
same,CC50,[5]; [34],> 100 µM
same,TGI,[5]; read-out: TGI,> 100 µM
same,GI50,[5]; read-out: pGI50 (converted),6.46 µM
same,CC50,[5]; [35],> 100 µM
same,TGI,[5]; read-out: pTGI,> 100 µM
same,GI50,[6]; read-out: GI50,41.9 µM
same,CC50,[6]; [34],> 100 µM
same,TGI,[6]; read-out: TGI,> 100 µM
same,GI50,[6]; read-out: pGI50 (converted),41.7 µM
same,CC50,[6]; [35],> 100 µM
same,TGI,[6]; read-out: pTGI (converted),> 100 µM
same,GI50,[7]; read-out: GI50,8.29 µM
same,CC50,[7]; [34],> 100 µM
same,TGI,[7]; read-out: TGI,> 100 µM
same,GI50,[7]; read-out: pGI50 (converted),8.32 µM
same,CC50,[7]; [35],> 100 µM
same,TGI,[7]; read-out: pTGI (converted),> 100 µM
same,GI50,[8]; read-out: GI50,9.74 µM
same,CC50,[8]; [34],> 100 µM
same,TGI,[8]; read-out: TGI,38 µM
same,GI50,[8]; read-out: pGI50 (converted),9.77 µM
same,CC50,[8]; [35],> 100 µM
same,TGI,[8]; read-out: pTGI (converted),38 µM
same,growth at 0.1 µM,[9],95%
same,growth at 0.1 µM,[10],96%
same,growth at 0.1 µM,[11],90%
same,growth at 0.1 µM,[12],100%
same,growth at 10 µM,[13],92%
same,growth at 10 µM,[14],96%
same,growth at 10 µM,[15],95%
same,growth at 10 µM,[16],82%
same,growth at 10 µM,[17],98%
same,growth at 100 µM,[18],40%
same,growth at 100 µM,[19],46%
same,growth at 100 µM,[20],65%
same,growth at 100 µM,[21],69%
same,growth at 100 µM,[22],48%
same,growth at 100 µM,[23],46%
same,growth at 100 µM,[24],60%
same,growth at 100 µM,[25],76%
same,growth at 100 µM,[26],51%
same,growth at 100 µM,[27],70%
same,growth at 1000 µM,[28],23%
same,growth at 1000 µM,[29],35%
same,growth at 1000 µM,[30],23%
same,growth at 1 µM,[31],98%
same,growth at 1 µM,[32],103%
same,growth at 1 µM,[33],89%
CCOC(=O)C[C@H]1[C@@H](O[Si](C)(C)C(C)(C)C)[C@H](n2cnc3c(NC(=O)Nc4ccccc4)ncnc32)O[C@@H]1CNC(=O)NC,growth at 10 µM,[1],102%
same,growth at 10 µM,[2],100%
same,GI50,[3]; read-out: GI50,> 100 µM
same,CC50,[3]; [34],> 100 µM
same,TGI,[3]; read-out: TGI,> 100 µM
same,GI50,[3]; read-out: pGI50 (converted),> 100 µM
same,CC50,[3]; [35],> 100 µM
same,TGI,[3]; read-out: pTGI,> 100 µM
same,GI50,[4]; read-out: GI50,> 100 µM
same,CC50,[4]; [34],> 100 µM
same,TGI,[4]; read-out: TGI,> 100 µM
same,GI50,[4]; read-out: pGI50 (converted),> 100 µM
same,CC50,[4]; [35],> 100 µM
same,TGI,[4]; read-out: pTGI (converted),> 100 µM
same,GI50,[5]; read-out: GI50,8.5 µM
same,CC50,[5]; [34],> 100 µM
same,TGI,[5]; read-out: TGI,> 100 µM
same,GI50,[5]; read-out: pGI50 (converted),8.51 µM
same,CC50,[5]; [35],> 100 µM
same,TGI,[5]; read-out: pTGI,> 100 µM
same,GI50,[6]; read-out: GI50,> 100 µM
same,CC50,[6]; [34],> 100 µM
same,TGI,[6]; read-out: TGI,> 100 µM
same,GI50,[6]; read-out: pGI50 (converted),> 100 µM
same,CC50,[6]; [35],> 100 µM
same,TGI,[6]; read-out: pTGI (converted),> 100 µM
same,GI50,[7]; read-out: GI50,6.53 µM
same,CC50,[7]; [34],92.5 µM
same,TGI,[7]; read-out: TGI,27 µM
same,GI50,[7]; read-out: pGI50 (converted),6.61 µM
same,CC50,[7]; [35],93.3 µM
same,TGI,[7]; read-out: pTGI (converted),26.9 µM
same,GI50,[8]; read-out: GI50,2.01 µM
same,CC50,[8]; [34],19.5 µM
same,TGI,[8]; read-out: TGI,4.63 µM
same,GI50,[8]; read-out: pGI50 (converted),2 µM
same,CC50,[8]; [35],19.5 µM
same,TGI,[8]; read-out: pTGI (converted),4.68 µM
same,growth at 0.1 µM,[9],114%
same,growth at 0.1 µM,[10],96%
same,growth at 0.1 µM,[11],95%
same,growth at 0.1 µM,[12],95%
same,growth at 10 µM,[13],99%
same,growth at 10 µM,[14],95%
same,growth at 10 µM,[15],90%
same,growth at 10 µM,[16],82%
same,growth at 10 µM,[17],89%
same,growth at 100 µM,[18],47%
same,growth at 100 µM,[19],40%
same,growth at 100 µM,[20],29%
same,growth at 100 µM,[21],82%
same,growth at 100 µM,[22],29%
same,growth at 100 µM,[23],61%
same,growth at 100 µM,[24],24%
same,growth at 100 µM,[25],80%
same,growth at 100 µM,[26],40%
same,growth at 100 µM,[27],67%
same,growth at 1000 µM,[28],-2%
same,growth at 1000 µM,[29],27%
same,growth at 1000 µM,[30],35%
same,growth at 1 µM,[31],90%
same,growth at 1 µM,[32],102%
same,growth at 1 µM,[33],94%
CNC(=O)OC[C@H]1O[C@@H](n2cnc3c(NC(=O)Nc4ccccc4)ncnc32)[C@H](O[Si](C)(C)C(C)(C)C)[C@@H]1O[Si](C)(C)C(C)(C)C,growth at 10 µM,[1],93.2%
same,growth at 10 µM,[2],98%
same,growth at 10 µM,[13],82.9%
same,growth at 10 µM,[14],85.8%
same,growth at 10 µM,[15],106%
same,growth at 10 µM,[16],106%
same,growth at 10 µM,[17],94.9%
